The results in this text go back to patent publication US20250268894A1, “MACROCYCLE COMPOUNDS FOR THE TREATMENT OF CANCER” (Hoffmann-La Roche Inc., priority 2022, published 2025).

Each structure is given as a SMILES string.

Data set [1] concerns human hepatocytes. Kind of data set: Human hepatocyte stability assay. The class given is in vitro ADME. Particulars: 1 μM compound, human hepatocyte suspension 1×10^6 cells/mL. The method, then:
The hepatocyte stability assay measures the rate of disappearance of a compound from incubations with cryopreserved suspension hepatocytes from human. Positive controls, including Midazolam, Raloxifene and Dextromethorphan, are included in every experiment. Incubations consist of 1 μM tested compound and suspension of human hepatocytes (1×10^6 cells/mL) in supplemented Williams' E Medium with 10% FBS and 0.5% Penicillin-streptomycin. The hepatocyte suspension was incubated with intermittent shaking 900 rpm at 37° C., in a 5% CO2 incubator. The reaction was stopped by adding methanol containing internal standard (2 μM Tolbutamide) at 2, 10, 20, 40, 60 and 120 minutes after compound addition, depletion of the parent compound was monitored by LC-MS/MS analysis.

In data set [2] the test system is Miapaca-2 KRAS G12C + D92R cells. Description: Stable KRAS mutant cell line viability assay (CellTiter-Glo), G12C + D92R. The data set is classed as cell-based. Particulars: Homo sapiens, MIA PaCa-2, 72 h, Miapaca-2 mutant cells, 3 d. An excerpt:
The aim of the study was to determine the potency and efficacy of compounds for cell proliferation using CellTiter-Glo® (CTG) Luminescent Cell Viability Assay (Promega Corp., Madison, WI). We cloned […] KRAS^G12C variant sequences with secondary mutations (V8A, V9Y, S17E, T58I, A59T, S65W, R68S, D69P, M72I, D92R, H95N, Y96D, Q99F, Q99W, Y96H, and F156L) into the Miapaca-2. Totally 14 stable Miapaca-2 mutant cell lines were established through lentivirus infection. For the cell viability assay, cells were dosed with compounds in a 9-point dose-response using a 4 fold dilution series at a top dose of 10 μM. KRAS mutant cells were maintained in DMEM+10% FBS+2.5% HI Horse serum+1% PS+1 μg/mL Puromycin and seeded into 96-well plates at 800-1,500 cells per well 24 h before compound addition and then incubated with compound for 3 d before assaying viability (CellTiter-Glo, Promega). Assays were performed in biological duplicates. Nonlinear regression curves were fitted using Xfit. IC50 (absolute IC50) is the dose at which the estimated viability is 50% relative to untreated wells.
Background: ATP-based viability assays read luminescence as a measure of living cells.

Turning to `CO[C@@H](C)c1ncc(N2CCN(CC(F)(F)F)CC2)cc1-c1c2c3cc(ccc3n1CC(F)(F)F)-c1csc(n1)C[C@H](NC(=O)[C@H](C(C)C)N(C)C(=O)N1CCOCC1)C(=O)N1CCC[C@H](N1)C(=O)OCC(C)(C)C2` (atropisomer, axis not shown; (M)) [Example 6], the “CL_hep (Human)” value in data set [1] is <2.4 mL/min/kg. The IC50 (as a rule, the concentration that inhibits the measured activity by half) in data set [2] was determined as 5 nM.
